PubChem BioAssay AID2060330 (Molecular Pharmacology Branch, DTP, NCI, 2025)

Tested on: LG0703-F948-PDC spheroids with HUVEC/MSC, viability
Test: Anticancer human tumor LG0703-F948-PDC patient-derived lung adenocarcinoma cell line growth inhibition [IpAb]
Conditions: for IC50: curve of first compound; for viability, T/C: stronger effect = lower value
Outline: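 Combinations with ipatasertib or abemaciclib were tested on tumour spheroids holding HUVEC (25%) and MSC (15%) alongside 60% malignant cells. Top concentration was at or near clinical Cmax (10 microM if undefined), descending in half-log steps.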

[1] = second compound 0.1 µM, first compound 0.0316 µM
[2] = second compound 0.1 µM, first compound 0.1 µM
[3] = second compound 0.1 µM, first compound 0.316 µM
[4] = second compound 0.1 µM, first compound 1 µM
[5] = second compound 0.1 µM, first compound 3.16 µM
[6] = second compound 0.1 µM, first compound 10 µM
[7] = second compound 0.316 µM, first compound 0.0316 µM
[8] = second compound 0.316 µM, first compound 0.1 µM
[9] = second compound 0.316 µM, first compound 0.316 µM
[10] = second compound 0.316 µM, first compound 1 µM
[11] = second compound 0.316 µM, first compound 3.16 µM
[12] = second compound 0.316 µM, first compound 10 µM
[13] = second compound 1 µM, first compound 0.0316 µM
[14] = second compound 1 µM, first compound 0.1 µM
[15] = second compound 1 µM, first compound 0.316 µM
[16] = second compound 1 µM, first compound 1 µM
[17] = second compound 1 µM, first compound 3.16 µM
[18] = second compound 1 µM, first compound 10 µM
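Note: spheroids exposed to compounds for seven days before readout.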
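Throughout, for viability, T/C: T/C percent relative to DMSO vehicle wells set as 100% viability.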

Cn1ncc(Cl)c1-c1cc(C(=O)NC(CN)Cc2cccc(F)c2)sc1Cl (stereo not given) + CC(C)NCC(C(=O)N1CCN(c2ncnc3c2C(C)CC3O)CC1)c1ccc(Cl)cc1
IC50 (second compound 0.1 µM): 714 nM
IC50 (second compound 0.316 µM): 925 nM
IC50 (second compound 1 µM): 522 nM
IC50 (second compound 3.16 µM): < 31.6 nM
IC50 (second compound 10 µM): < 31.6 nM
viability, T/C [1]: 75.9%
viability, T/C [2]: 75.1%
viability, T/C [3]: 53.7%
viability, T/C [4]: 53.4%
viability, T/C [5]: 15.4%
viability, T/C [6]: 0.11%
viability, T/C [7]: 60%
viability, T/C [8]: 57.1%
viability, T/C [9]: 53.8%
viability, T/C [10]: 50.2%
viability, T/C [11]: 18.7%
viability, T/C [12]: 0.1%
viability, T/C [13]: 54.7%
viability, T/C [14]: 50.5%
viability, T/C [15]: 49.4%
viability, T/C [16]: 48.1%
viability, T/C [17]: 11%
viability, T/C [18]: 0.1%
viability, T/C (second compound 3.16 µM, first compound 0.0316 µM): 41.2%
viability, T/C (second compound 3.16 µM, first compound 0.1 µM): 44.9%
viability, T/C (second compound 3.16 µM, first compound 0.316 µM): 43.7%
viability, T/C (second compound 3.16 µM, first compound 1 µM): 40.5%
viability, T/C (second compound 3.16 µM, first compound 3.16 µM): 18.9%
viability, T/C (second compound 3.16 µM, first compound 10 µM): 0.1%
viability, T/C (second compound 10 µM, first compound 0.0316 µM): 41.8%
viability, T/C (second compound 10 µM, first compound 0.1 µM): 42.1%
viability, T/C (second compound 10 µM, first compound 0.316 µM): 35%
viability, T/C (second compound 10 µM, first compound 1 µM): 39.3%
viability, T/C (second compound 10 µM, first compound 3.16 µM): 9.68%
viability, T/C (second compound 10 µM, first compound 10 µM): 0.15%

C=CCn1c(=O)c2cnc(Nc3ccc(N4CCN(C)CC4)cc3)nc2n1-c1cccc(C(C)(C)O)n1 + CCN1CCN(Cc2ccc(Nc3ncc(F)c(-c4cc(F)c5nc(C)n(C(C)C)c5c4)n3)nc2)CC1
IC50 (second compound 0.01 µM): 1160 nM
IC50 (second compound 0.0316 µM): 1010 nM
IC50 (second compound 0.1 µM): 898 nM
IC50 (second compound 0.316 µM): 862 nM
IC50 (second compound 1 µM): 421 nM
viability, T/C (second compound 0.01 µM, first compound 0.0316 µM): 120%
viability, T/C (second compound 0.01 µM, first compound 0.1 µM): 101%
viability, T/C (second compound 0.01 µM, first compound 0.316 µM): 86%
viability, T/C (second compound 0.01 µM, first compound 1 µM): 58.9%
viability, T/C (second compound 0.01 µM, first compound 3.16 µM): 17.3%
viability, T/C (second compound 0.01 µM, first compound 10 µM): 8.27%
viability, T/C (second compound 0.0316 µM, first compound 0.0316 µM): 99.6%
viability, T/C (second compound 0.0316 µM, first compound 0.1 µM): 94.1%
viability, T/C (second compound 0.0316 µM, first compound 0.316 µM): 78.7%
viability, T/C (second compound 0.0316 µM, first compound 1 µM): 53.2%
viability, T/C (second compound 0.0316 µM, first compound 3.16 µM): 16.6%
viability, T/C (second compound 0.0316 µM, first compound 10 µM): 6.85%
viability, T/C [1]: 95.8%
viability, T/C [2]: 76.5%
viability, T/C [3]: 71.2%
viability, T/C [4]: 53.5%
viability, T/C [5]: 16%
viability, T/C [6]: 4.26%
viability, T/C [7]: 85.3%
viability, T/C [8]: 79.6%
viability, T/C [9]: 69.4%
viability, T/C [10]: 47.7%
viability, T/C [11]: 21.4%
viability, T/C [12]: 7.46%
viability, T/C [13]: 88.4%
viability, T/C [14]: 69.8%
viability, T/C [15]: 51.8%
viability, T/C [16]: 40.1%
viability, T/C [17]: 21.8%
viability, T/C [18]: 3.5%

Cn1cnc2c(F)c(Nc3ccc(Br)cc3Cl)c(C(=O)NOCCO)cc21 + CCN1CCN(Cc2ccc(Nc3ncc(F)c(-c4cc(F)c5nc(C)n(C(C)C)c5c4)n3)nc2)CC1
IC50 (second compound 0.01 µM): 270 nM
IC50 (second compound 0.0316 µM): 132 nM
IC50 (second compound 0.1 µM): 54.1 nM
IC50 (second compound 0.316 µM): 288 nM
IC50 (second compound 1 µM): 41.6 nM
viability, T/C (second compound 0.01 µM, first compound 0.00949 µM): 83%
viability, T/C (second compound 0.01 µM, first compound 0.03 µM): 74.6%
viability, T/C (second compound 0.01 µM, first compound 0.0949 µM): 55.4%
viability, T/C (second compound 0.01 µM, first compound 0.3 µM): 52.6%
viability, T/C (second compound 0.01 µM, first compound 0.949 µM): 46.7%
viability, T/C (second compound 0.01 µM, first compound 3 µM): 45%
viability, T/C (second compound 0.0316 µM, first compound 0.00949 µM): 80.4%
viability, T/C (second compound 0.0316 µM, first compound 0.03 µM): 61.5%
viability, T/C (second compound 0.0316 µM, first compound 0.0949 µM): 51.9%
viability, T/C (second compound 0.0316 µM, first compound 0.3 µM): 46.2%
viability, T/C (second compound 0.0316 µM, first compound 0.949 µM): 46.1%
viability, T/C (second compound 0.0316 µM, first compound 3 µM): 39.8%
viability, T/C (second compound 0.1 µM, first compound 0.00949 µM): 68.8%
viability, T/C (second compound 0.1 µM, first compound 0.03 µM): 54.5%
viability, T/C (second compound 0.1 µM, first compound 0.0949 µM): 43.9%
viability, T/C (second compound 0.1 µM, first compound 0.3 µM): 44.1%
viability, T/C (second compound 0.1 µM, first compound 0.949 µM): 45.2%
viability, T/C (second compound 0.1 µM, first compound 3 µM): 37%
viability, T/C (second compound 0.316 µM, first compound 0.00949 µM): 72.7%
viability, T/C (second compound 0.316 µM, first compound 0.03 µM): 64.9%
viability, T/C (second compound 0.316 µM, first compound 0.0949 µM): 48%
viability, T/C (second compound 0.316 µM, first compound 0.3 µM): 54.4%
viability, T/C (second compound 0.316 µM, first compound 0.949 µM): 48.8%
viability, T/C (second compound 0.316 µM, first compound 3 µM): 41.7%
viability, T/C (second compound 1 µM, first compound 0.00949 µM): 70.1%
viability, T/C (second compound 1 µM, first compound 0.03 µM): 53.6%
viability, T/C (second compound 1 µM, first compound 0.0949 µM): 38.4%
viability, T/C (second compound 1 µM, first compound 0.3 µM): 44%
viability, T/C (second compound 1 µM, first compound 0.949 µM): 39.2%
viability, T/C (second compound 1 µM, first compound 3 µM): 41.5%
